Measurements from patent US20100190832A1, “Mechanism-based inhibitors of transthyretin amyloidosis: studies with biphenyl ethers and structural templates” (NATIONAL INSTITUTE OF IMMUNOLOGY., priority 2008, published 2010).
Where two headings read alike, the source gives them in different places.

Assays:
WT-TTR = molecular target: T1, WT-TTR (Homo sapiens, UniProt P02766); experiment: Stagnant acid-mediated TTR aggregation (fibril formation) assay, turbidity at 340 nm; assay type: biochemical; conditions: for remaining activity at 7.2 µM / remaining activity at 21.6 µM / remaining activity at 50 µM: 72 h; for remaining activity at 50 µM: read-out: % FF at 50 μM; for inhibition of TTR fibrillization: inhibitor 21.6 μM
T1 construct: made in house
Experimental: Stagnant Acid-Mediated TTR Aggregation Assay.
After 1 h, the samples were diluted with 0.5 ml of 200 mM sodium acetate buffer containing 100 mM KCl and 1 mM EDTA. Samples after mild vortexing were incubated at 37° C. for the desired amount of time without stirring to evaluate the efficacy of the inhibitors. The extent of aggregation was probed by turbidity measurements at 340 nm using Tecan GENios microplate reader. […] The extent of TTR fibril formation in the absence of inhibitor was defined to be 100%. […] All experiments were done in triplicate. […] The IC50 was determined by plotting mean of % inhibition vs log and fitted to sigmoid equation:
(§1) The experiments were conducted at 25° C. After 1 h, the samples were diluted with 0.5 mL of 200 mM sodium acetate buffer pH 4.4 containing 100 mM KCl and 1 mM EDTA, vortexed, and incubated at 37° C. for 72 h. […] The stoichiometry of the binding of the inhibitors was determined by HPLC as described by Green et al., N. S. Palaninathan, S, L, Sacchettini, J. e. […] Dissociation constant of binding of these compounds to TTR was determined by fluorescence titration, and data were fitted into the Adair equation for two bind mg.

TTR [1] = molecular target: T2, TTR (Homo sapiens, UniProt P02766); experiment: Time course (kinetics) of fibril formation, turbidity at 340 nm for 3 h; assay type: biochemical; conditions: TTR 7.2 μM, inhibitor 21.6 μM, 37° C., pH 4.4, 3 h
T2 construct: made in house
Experimental: Time Course of Fibril Formation. The kinetics of inhibition was studied by incubating […] TTR with […] of different inhibitors in 100 µl of 5 mM phosphate buffer pH 7.2 for 30 min in a 96 microwell plate. […] of 0.2 M sodium acetate buffer pH 4.4 containing 1 mM EDTA and 100 mM KCl was added. The difference in turbidity was assessed by measuring the change in absorbance at 340 nm on Tecan GEnios microplate reader using Magellan software. For kinetics, parameters were set for 30 cycles at 37° C. at the interval of 5 min each and 2 min orbital shaking (low speed) between cycles and 10 sec shaking (normal speed) before measurement. All experiments were performed in triplicates. Change in absorbance at 340 nm was plotted against time in the presence and absence of inhibitors initial rate of fibril formation was calculated from the slope by linear fitting of the data.
All experiments were performed three times in triplicates. Change in absorbance (mean of three different experiments) at 340 nm was plotted against time in the presence and absence of inhibitors. Initial rate of fibril form action was calculated from the value of the slope by linear fitting of the change in absorbance at 340 nm as a function of time.

TTR tetramer = molecular target: T3, TTR tetramer (Homo sapiens, UniProt P02766); experiment: Urea denaturation (tetramer dissociation, tryptophan fluorescence); assay type: biochemical; conditions: TTR 1.8 μM, inhibitor 5.4 μM (1:3), 6 M urea, 25° C., up to […]
T3 construct: made in house

TTR [2] = molecular target: T2, TTR; experiment: Dissociation constant by fluorescence titration (Adair equation, two sites); assay type: binding
Experimental: as §1
Small aliquots of 1 mM ligands solutions were successively added to the […] in 100 mM sodium acetate buffer pH 4.4 at […] under constant stirring. After each addition sample was left for 2 min. […] Readings were corrected for buffer blank, dilution and inner filter effect. The inner filter effect was corrected by using the following equation,
From the titration data the dissociation constant was determined by fitting data in following Adair equation for two binding sites-

TTR fibers = molecular target: T4, TTR fibers (Homo sapiens, UniProt P02766); experiment: Fibril disruption assay; assay type: biochemical; conditions: three doses (7.2 μM each), 15 days, Th-T fluorescence
T4 construct: made in house
Experimental: Fibril Disruption Assay. […] The disruption was followed for 7 days by turbidity measurements at 340 nm and Th-T fluorescence. A second dose of the inhibitor (7.2 μM) was added after 24 h of incubation, and samples were incubated and monitored further for 5-6 days. After 15-20 days of incubation, samples were examined by transmission electron microscopy (TEM). All experiments were done thrice in triplicates each time.

[3] = 50% reduction in fibril formation, TTR 7.2 μM, pH 4.4, read-out: IC50 ± SE
[4] = biphenyl ether 50 μM, WT-TTR 7.2 μM
[5] = pH 4.4, TTR 7.2 μM, inhibitor 7.2 μM (1:1), pH 4.4, 37° C., no inhibitor = 100%, read-out: % FF 1:1
[6] = pH 4.4, TTR 7.2 μM, inhibitor 21.6 μM (1:3), pH 4.4, 37° C., no inhibitor = 100%, read-out: % FF 1:3
[7] = TTR amyloid formation, 37° C., read-out: IC50
[8] = Table 3, WT-TTR 7.2 μM, read-out: IC50
[9] = pH 4.4; read-out: Dissociation Constant Kd1
[10] = pH 4.4; read-out: Dissociation Constant Kd2

Oc1cc(Cl)ccc1Oc1ccc(Cl)cc1Cl [Compound 1, Triclosan, reference compound]
remaining activity at 7.2 µM (WT-TTR; pH 4.4, read-out: % FF 1:1): 75%
remaining activity at 21.6 µM (WT-TTR; pH 4.4, read-out: % FF 1:3): 66%
remaining activity at 50 µM (WT-TTR): 41%
inhibition at 21.6 µM (WT-TTR; pH 4.4, read-out: inhibition of fibril formation): ~24%
inhibition at 21.6 µM (TTR [1]): 62%
protein dissociates (tetramer dissociation) (TTR tetramer): 47%

O=C(O)c1ccc(Oc2ccc(Cl)cc2Cl)c(O)c1 [Compound 7]
IC50 (WT-TTR; [3]): 2590 ± 140 nM
remaining activity at 50 µM (WT-TTR; [4]): 0%
remaining activity at 7.2 µM (WT-TTR; [5]): 29%
remaining activity at 21.6 µM (WT-TTR; [6]): 13.3%
IC50 (WT-TTR; [7]): 470 to 3500 nM
IC50 (WT-TTR; [8]): 2590 nM
Kd (TTR [2]; [9]): 27 ± 8.03 nM
Kd (TTR [2]; [10]): 3 ± 0.78 nM
inhibition at 21.6 µM (TTR [1]): > 80%
protein dissociates (tetramer dissociation) (TTR tetramer): 21%

O=C(Nc1nnc[nH]1)c1c(Cl)ccc(Cl)c1Cl [Compound 12]
IC50 (WT-TTR; [3]): 1060 ± 10 nM
remaining activity at 7.2 µM (WT-TTR; [5]): 11%
remaining activity at 21.6 µM (WT-TTR; [6]): 3.6%
IC50 (WT-TTR; [7]): 470 to 3500 nM
inhibition of TTR fibrillization (WT-TTR; TTR 7.2 μM): completely
disruption of preformed TTR fibers (TTR fibers): more effective
Kd (TTR [2]; [9]): 120 ± 32.1 nM
inhibition at 21.6 µM (TTR [1]): > 80%

O=Cc1ccc(Oc2ccc(Cl)cc2Cl)c(O)c1 [Compound 2]
Kd (TTR [2]; [9]): 13.9 ± 5.01 nM
Kd (TTR [2]; read-out: Dissociation Constant Kd2; pH 4.4): 525 ± 60.1 nM
inhibition at 21.6 µM (TTR [1]): > 80%

COc1cc(C(=O)O)ccc1Oc1ccc(Cl)cc1Cl [Compound 6]
remaining activity at 50 µM (WT-TTR; [4]): 0%
remaining activity at 7.2 µM (WT-TTR; [5]): 10%
remaining activity at 21.6 µM (WT-TTR; [6]): 0%
disruption of preformed TTR fibers (TTR fibers): more effective
inhibition at 21.6 µM (TTR [1]): > 80%

OCc1ccc(Oc2ccc(Cl)cc2Cl)c(O)c1 [Compound 4]
IC50 (WT-TTR; [3]): 1360 ± 50 nM
remaining activity at 50 µM (WT-TTR; [4]): 11.5%
remaining activity at 7.2 µM (WT-TTR; [5]): 12%
remaining activity at 21.6 µM (WT-TTR; [6]): 2.6%
IC50 (WT-TTR; [7]): 470 to 3500 nM
IC50 (WT-TTR; [8]): 1360 nM
disruption of preformed TTR fibers (TTR fibers): more effective
Kd (TTR [2]; [9]): 0.3 ± 0.14 nM
Kd (TTR [2]; [10]): 13800 ± 1020 nM
inhibition at 21.6 µM (TTR [1]): > 80%

Oc1ccccc1-c1nnc(S)o1 [Compound 11]
IC50 (WT-TTR; [3]): 3100 ± 50 nM
remaining activity at 7.2 µM (WT-TTR; [5]): 21%
remaining activity at 21.6 µM (WT-TTR; [6]): 0%
IC50 (WT-TTR; [7]): 470 to 3500 nM
inhibition of TTR fibrillization (WT-TTR; TTR 7.2 μM): completely
Kd (TTR [2]; [9]): 42 ± 2.35 nM
Kd (TTR [2]; [10]): 72.6 ± 10.3 nM
inhibition at 21.6 µM (TTR [1]): > 80%

N[C@H](Cc1cc(I)c(Oc2cc(I)c(O)c(I)c2)c(I)c1)C(=O)O (stereo in doubt) [Compound 13, thyroxine, reference compound]
% FF 1:1 (WT-TTR; TTR 7.2 μM, inhibitor 7.2 μM (1:1), pH 4.4, 37° C., no inhibitor = 100%): 48%
% FF 1:3 (WT-TTR; TTR 7.2 μM, inhibitor 21.6 μM (1:3), pH 4.4, 37° C., no inhibitor = 100%): 7%
inhibition at 21.6 µM (TTR [1]): 75%
protein dissociates (tetramer dissociation) (TTR tetramer): 27%

COc1cc(C=O)ccc1Oc1ccccc1 [Compound 9]
IC50 (WT-TTR; [3]): 1310 ± 80 nM
remaining activity at 50 µM (WT-TTR; [4]): 0%
remaining activity at 7.2 µM (WT-TTR; [5]): 12%
remaining activity at 21.6 µM (WT-TTR; [6]): 0%
IC50 (WT-TTR; [7]): 470 to 3500 nM
IC50 (WT-TTR; [8]): 1310 nM
disruption of preformed TTR fibers (TTR fibers): more effective
Kd (TTR [2]; [9]): 88 ± 10.1 nM
inhibition at 21.6 µM (TTR [1]): > 80%

COc1cc(CCl)ccc1Oc1ccc(Cl)cc1Cl [Compound 5]
IC50 (WT-TTR): 470 to 3500 nM
IC50 (WT-TTR; [3]): 3160 ± 40 nM
remaining activity at 50 µM (WT-TTR; [4]): 0%
remaining activity at 7.2 µM (WT-TTR; [5]): 26%
remaining activity at 21.6 µM (WT-TTR; [6]): 0%
IC50 (WT-TTR; [8]): 3160 nM
disruption of preformed TTR fibers (TTR fibers): more effective
inhibition at 21.6 µM (TTR [1]): > 80%
